From US4284769A, “Preparation of triazinyl nitriles” (priority 1975, dated 1981) come the findings set out here.

Test [1] can be described thus: Polymerization constant Kp of radical initiators in methylmethacrylate (dilatometer). The note with it: initiator 0.05% by weight for poorly soluble ones, normally 0.2%. On the procedure:
(§1) In these examples the reactivities are determined of the radical initiators and polymerization initiators according to the invention and some known radical initiators. The reactivity is indicated with the polymerization constant Kp. The latter is very much dependent on the temperature and occurs in the formula Rp=Kp (M) (I)^1/2 where Rp is the polymerization speed, (M) the concentration of the monomer and (I) the concentration of the radical initiator (see "Die Makromolekulare Chemie" 157 (1972), p.279 ff). In all determinations 50 ml. of the monomer were mixed with the radial initiators listed in the following Table and transferred to a dilatometer. The dilatometer was cooled to -80° C., filled with nitrogen, followed by applying vacuum to it; the last two treatments were repeated three times. Then the dilatometer was placed in a thermostated bath which had been set to the polymerization temperature mentioned in the table below. The concentration values were determined in accordance with the standard dilatometric technique (see "Angewandte Chemie" 59 (1947), p90). From the values obtained the conversion and the Kp-values were successively determined. The Table below gives the values obtained for the compounds are prepared in the Examples I through VII. For comparison also the Kp-values of some known radical initiators, namely, α,α'-bis(methoxycarbo)α,α'-bis(p-methylphenyl)succinonitrile(dl) (IX), dilauroyl peroxide (X), di-t-butyl perpivalate (XI) and tert. butyl peroxypivalate (XII) are listed in the Table.
(§2) Because of the poor solubility of some of the radical initiators prepared in the preceding examples, the determination of the Kp-value was started from 0.05% by weight, whereas normally 0.2% by weight is included in the monomer to be polymerized. The Kp-values of other radical initiators in styrene are listed in the Tables 2 and 3 on page 283 of the aforementioned article in "Die Makromolekulare Chemie".

Test [2] can be described thus: Polymerization constant Kp of radical initiators in styrene (dilatometer). As to conditions: initiator 0.05% by weight for poorly soluble ones, normally 0.2%. On the procedure: as §1, §2

With `COc1nc(OC)nc(C(C#N)(c2ccc(C)cc2)C(C#N)(c2ccc(C)cc2)c2nc(OC)nc(OC)n2)n1` (stereo not shown) [I + II], the “Kp-value × 10^4” value is recorded as 3.85 in test [1] (temperature 50 °C) and 7.5 in test [1] (temperature 60 °C).

Turning to `CSc1nc(SC)nc(C(C#N)(c2ccc(C)cc2)C(C#N)(c2ccc(C)cc2)c2nc(SC)nc(SC)n2)n1` (stereo not drawn) [Example III, α,α'-bis(p-methylphenyl)α,α'-bis(2,4-dimethylthio-1,3,5-triazine)succinonitrile], the “Kp-value × 10^4” value in test [1] (temperature 50 °C) is on record as 2.85; in test [1] (temperature 60 °C), 5.92.

For the compound `CC(C)(C)OOC(=O)C(C)(C)C` [XI, di-t-butyl perpivalate, reference compound], the “Kp-value × 10^4” value in test [2] (temperature 70 °C) is given as 4.2; in test [2] (temperature 80 °C), 10.1.

In the case of `COc1ccc(C(C#N)(c2nc(OC)nc(OC)n2)C(C#N)(c2ccc(OC)cc2)c2nc(OC)nc(OC)n2)cc1` (stereo not drawn) [Example IV, α,α'-bis(p-methoxyphenyl)α,α'-bis(2,4-dimethoxy-1,3,5-triazine)succinonitrile], the results for the “Kp-value × 10^4” value in test [1] (temperature 50 °C) and in test [1] (temperature 60 °C) were 1.1 and 2.7, respectively.

Turning to `CCCCCCCCCCCC(=O)OOC(=O)CCCCCCCCCCC` [X, dilauroyl peroxide, reference compound], the “Kp-value × 10^4” value in test [2] (temperature 70 °C) is listed as 2.4; in test [2] (temperature 80 °C), 5.8.

As to `CC(C)(C)OOC(=O)C(C)(C)C` [XII, tert. butyl peroxypivalate, reference compound], in test [1] (temperature 50 °C), the “Kp-value × 10^4” value is given as 3.0.

As to `COc1nc(OC)nc(C(C#N)(c2ccc(Cl)cc2)C(C#N)(c2ccc(Cl)cc2)c2nc(OC)nc(OC)n2)n1` (stereo not drawn) [VII, α,α'-bis(p-chorophenyl)α,α'-bis(2,4-dimethoxy-1,3,5-triazine)succinonitrile], the “Kp-value × 10^4” value in test [1] (temperature 50 °C) is reported as 2.10; in test [1] (temperature 60 °C) it was 5.52; in test [2] (temperature 70 °C), 6.10; in test [2] (temperature 80 °C), 5.70.

With `COC(=O)[C@](C#N)(c1ccc(C)cc1)[C@](C#N)(C(=O)OC)c1ccc(C)cc1` (relative stereo) [IX, α,α'-bis(methoxycarbo)α,α'-bis(p-methylphenyl)succinonitrile(dl), reference compound], the “Kp-value × 10^4” value in test [2] (temperature 70 °C) came out at 1.3; in test [2] (temperature 80 °C), 3.4.

In the case of `CCCCCCCCCCCCCCCCCCOc1nc(OCCCCCCCCCCCCCCCCCC)nc(C(C#N)(c2ccc(C)cc2)C(C#N)(c2ccc(C)cc2)c2nc(OCCCCCCCCCCCCCCCCCC)nc(OCCCCCCCCCCCCCCCCCC)n2)n1` (stereo not drawn) [Example V, α,α'-bis(p-tolyl)α,α'-bis(2,4-distearoxy-1,3,5-triazine)succinonitrile], the “Kp-value × 10^4” value in test [1] (temperature 50 °C) amounted to 2.32; in test [1] (temperature 60 °C), 4.48; in test [2] (temperature 70 °C) it was 3.05; in test [2] (temperature 80 °C), 7.86.

With `Cc1ccc(C(C#N)(c2nc(N3CCCCC3)nc(N3CCCCC3)n2)C(C#N)(c2ccc(C)cc2)c2nc(N3CCCCC3)nc(N3CCCCC3)n2)cc1` (stereo not drawn) [VI, α,α'-bis(p-methylphenyl) α,α'-bis (2,4-dipiperidino-1,3,5-triazine)succinonitrile], the “Kp-value × 10^4” value in test [1] (temperature 50 °C) is listed as “no polymerization”; in test [1] (temperature 60 °C), “no polymerization”; in test [2] (temperature 80 °C) it was 1.60; in test [2] (temperature 90 °C) it was 3.56.
